In brackets after ≈: the same amount, converted by molar mass. Where two headings read alike, the source gives them in different places.
What was measured:
[1] = system: intracellular S. Typhimurium in RAW264.7 macrophages; assay: microbe, parasite or virus in culture; format: cell-based, Salmonella enterica serovar Typhimurium; conditions: for survival of intracellular Salmonella in macrophages, antibiotic alone: RAW264.7, 24 h
Procedure: (§1) Overnight cultures of RFP-expressing S. Typhimurium were prepared for infection by 1:100 dilution in fresh LB broth and incubation for 2 h at 37°C. The bacteria were then collected by centrifugation at 6,000 × g for 3 min and suspended in phosphate-buffered saline (PBS; pH 7.2) to an optical density of 0.6 at 600 nm, which was equivalent to 5 × 10^8 CFU/mL. RAW264.7 macrophages were seeded in 96-well black clear-bottom plates (Greiner) and incubated for 20 h followed by infection with RFP-expressing S. Typhimurium at a multiplicity of infection (MOI) of 50 for 1 h. […] Afterward, the cells were washed and stained with CellTracker Green (Thermo Fisher Scientific) for 30 min in serum-free DMEM followed by fixation in 3.7% formaldehyde (Sigma-Aldrich) for 20 min and stained with 0.2 mg/L DAPI (4′,6-diamidino-2-phenylindole; AAT Bioquest) for 30 min. Images of individual wells were captured and analyzed using a high-content imaging system (ImageXpress Micro 4; Molecular Devices). The CC50 and 50% effective concentration (EC50) values against intracellular bacteria of each compound were determined using CalcuSyn software (Biosoft).

S. Typhimurium NL08.10 = assay: MIC assay (broth microdilution); format: cell-based, Salmonella Typhimurium; conditions: Table S1(A); for MIC: Salmonella enterica, TYPHIMURIUM, NL08.10, read-out: MIC; for R/I/S: NL08.10, CLSI criteria
Procedure: (§2) The minimal inhibitory concentration (MIC) of each test compound against the individual bacterial strains was determined by the broth microdilution method following the guidelines recommended by the Clinical and Laboratory Standards Institute (CLSI) ([27]).

[2] = system: S. Typhimurium ATCC 14028; assay: MIC assay (broth microdilution); format: cell-based, Salmonella Typhimurium; conditions: for MIC: Salmonella enterica; for R/I/S: ATCC 14028, CLSI criteria
Procedure: as §2

S. Typhimurium 0911R = assay: microbe, parasite or virus in culture; format: cell-based, Salmonella Typhimurium; conditions: for MIC: Salmonella enterica, TYPHIMURIUM; for R/I/S: Table S1(A), 0911R, CLSI criteria
Procedure: as §2

S. Typhimurium SA10 = assay: MIC assay (broth microdilution); format: cell-based, Salmonella Typhimurium; conditions: Table S1(B); for MIC: Salmonella enterica, TYPHIMURIUM, SA10; for R/I/S: SA10, CLSI criteria
Procedure: as §2

S. Typhimurium SB10 = assay: MIC assay (broth microdilution); format: cell-based, Salmonella Typhimurium; conditions: Table S1(B); for MIC: Salmonella enterica, TYPHIMURIUM, SB10, read-out: MIC; for R/I/S: SB10, CLSI criteria
Procedure: as §2

[3] = HCA cytotoxicity toward infected macrophages (nuclear staining); format: cell-based, murine; conditions: mouse, RAW264.7 macrophages infected with S. Typhimurium, infected RAW264.7 cells, read-out: 50% cytotoxic concentration (CC50) toward macrophages
Procedure: as §1

[4] = system: ROS levels in Salmonella-infected RAW264.7 cells; assay: Analysis of ROS in macrophages (H2DCFDA); format: cell-based, murine; conditions: 1 h; SW14 at concentrations up to 8 μM
Procedure: RAW264.7 macrophages were seeded in 96-well black plates and infected by S. Typhimurium ATCC 14028 at an MOI of 25 for 1 h. After infection, the cells were washed, exposed to 100 mg/L gentamicin for 1 h, washed with warm Krebs-Ringer phosphate buffer (KRP buffer; 120 mM NaCl, 5 mM KCl, 1.7 mM KH2PO4, 8.3 mM Na2HPO4, 10 mM glucose, 1 mM CaCl2, 1.5 mM MgCl2, pH 7.3) and stained with H2DCFDA at 37°C with 5% CO2 for 45 min. The cells were then washed with KRP buffer and treated with SW14 or PMA at the desired concentrations in KRP buffer with 10% FBS. Fluorescence signals at 488/525 nm (excitation/emission) were measured using a SpectraMax M5 Microplate Reader (Molecular Devices).

[5] = Table S1(A), ATCC 14028, read-out: MIC
[6] = Table S2, CAMH medium, read-out: MIC
[7] = Table S2, LB medium, read-out: MIC
[8] = Table S2, LPM medium, read-out: MIC

In the case of Cn1cnc(N)c2ncnc1-2 [3-MA, 3-methyladenine], the “relative number of intracellular bacteria” value ([1]; 3-MA 10 mM, infected RAW264.7) is reported as “increased significantly”.
For CC1(C)S[C@@H]2[C@H](NC(=O)[C@H](N)c3ccccc3)C(=O)N2[C@H]1C(=O)O [Ampicillin], the MIC (S. Typhimurium NL08.10) was greater than 64 µg/mL, the R/I/S (S. Typhimurium NL08.10) was “R” and the MIC [2, 5] was 16 µg/mL (≈ 45.8 µM). The MIC [2, 6] was 4 µg/mL (≈ 11.4 µM), the MIC [2, 7] was 4 µg/mL (≈ 11.4 µM) and the MIC [2, 8] was 1 µg/mL (≈ 2.86 µM). For the same compound, the R/I/S ([2]; Table S1(A)) was “I”, the MIC (S. Typhimurium 0911R) was greater than 64 µg/mL and the R/I/S (S. Typhimurium 0911R) was “R”.
For O=C(N[C@H](CO)[C@H](O)c1ccc([N+](=O)[O-])cc1)C(Cl)Cl [Chloramphenicol], the MIC (S. Typhimurium NL08.10) was 32 µg/mL (≈ 99 µM), the R/I/S (S. Typhimurium NL08.10) was “R” and the MIC [2, 5] was 16 µg/mL (≈ 49.5 µM). For the same compound, the R/I/S ([2]; Table S1(A)) was “I” and the R/I/S (S. Typhimurium 0911R) was “R”.
In the case of O=C(O)c1cn(C2CC2)c2cc(N3CCNCC3)c(F)cc2c1=O [Ciprofloxacin, ciprofloxacin], the “survival of intracellular Salmonella in macrophages, antibiotic alone” value ([1]; HCA) is reported as “inhibited the survival of intracellular Salmonella in macrophages in a dose-dependent manner”.
For CNC(C)C1CCC(N)C(OC2C(N)CC(N)C(OC3OCC(C)(O)C(NC)C3O)C2O)O1 (stereo not drawn) [Gentamicin, gentamicin], the MIC (S. Typhimurium NL08.10) was 2 µg/mL (≈ 4.19 µM), the R/I/S (S. Typhimurium NL08.10) was “S” and the MIC [2, 5] was 2 µg/mL (≈ 4.19 µM). For the same compound, the MIC ([2]; Table S1(B), ATCC 14028, read-out: MIC) was 2 µg/mL (≈ 4.19 µM), the R/I/S ([2]; Table S1(A)) was “S” and the R/I/S ([2]; Table S1(B)) was “S”. The MIC (S. Typhimurium SA10) was 0.5 µg/mL (≈ 1.05 µM), the R/I/S (S. Typhimurium SA10) was “S” and the MIC (S. Typhimurium SB10) was 1 µg/mL (≈ 2.09 µM). The R/I/S (S. Typhimurium SB10) was “S” and the R/I/S (S. Typhimurium 0911R) was “S”.
In the case of CN1CCN(C2=Nc3ccccc3Oc3ccc(Cl)cc32)CC1 [Loxapine, loxapine], the “selectivity index (SI; CC50/EC50)” value ([1]; CC50 RAW264.7 / EC50 intracellular Salmonella) is reported as 16.3, the EC50 ([1]; Salmonella enterica, RFP-expressing S. Typhimurium in RAW264.7, 24 h, with gentamicin 20 mg/L, HCA, read-out: 50% effective concentration (EC50) against intracellular Salmonella) is reported as 5.4 µM and the CC50 at 24 h [3] is reported as 88.2 µM.
With CC1COc2c(N3CCN(C)CC3)c(F)cc3c(=O)c(C(=O)O)cn1c23 (stereo not drawn) [Ofloxacin] the MIC [2] was less than 0.125 µg/mL, the R/I/S ([2]; Table S1(B)) was “S” and the MIC (S. Typhimurium SA10) was 8 µg/mL (≈ 22.1 µM). For the same compound, the R/I/S (S. Typhimurium SA10) was “R”, the MIC (S. Typhimurium SB10) was 8 µg/mL (≈ 22.1 µM) and the R/I/S (S. Typhimurium SB10) was “R”.
With CCCCCCCCCCCCCC(=O)O[C@@H]1[C@@H](C)[C@@]2(O)[C@@H](C=C(CO)C[C@]3(O)C(=O)C(C)=C[C@@H]23)[C@@H]2C(C)(C)[C@]12OC(C)=O [PMA, phorbol 12-myristate 13-acetate] the “ROS level (H2DCFDA fluorescence signal) in infected macrophages” value [4] was “significantly elevated”.
In the case of CO[C@H]1/C=C/O[C@@]2(C)Oc3c(C)c(O)c4c(O)c(c(/C=N/N5CCN(C)CC5)c(O)c4c3C2=O)NC(=O)/C(C)=C\C=C\[C@H](C)[C@H](O)[C@@H](C)[C@@H](O)[C@@H](C)[C@H](OC(C)=O)[C@@H]1C [Rifampicin], the MIC [2, 6] is reported as 16 µg/mL (≈ 19.4 µM), the MIC [2, 7] is reported as 16 µg/mL (≈ 19.4 µM) and the MIC [2, 8] is reported as 4 µg/mL (≈ 4.86 µM).
[H]/N=C(/N)N[C@H]1[C@H](O)[C@@H](O)[C@H](O[C@@H]2O[C@@H](C)[C@](O)(C=O)[C@H]2O[C@@H]2O[C@@H](CO)[C@H](O)[C@@H](O)[C@@H]2NC)[C@@H](N/C(N)=N\[H])[C@@H]1O [Streptomycin] gave an MIC (S. Typhimurium NL08.10) greater than 64 µg/mL, an MIC [2, 5] of 32 µg/mL (≈ 55 µM) and an MIC (S. Typhimurium 0911R) greater than 64 µg/mL.
For CN(C)[C@@H]1C(O)=C(C(N)=O)C(=O)[C@@]2(O)C(O)=C3C(=O)c4c(O)cccc4[C@@](C)(O)[C@H]3C[C@@H]12 [Tetracycline], the R/I/S (S. Typhimurium NL08.10) was “R”, the MIC [2, 5] was 8 µg/mL (≈ 18 µM) and the R/I/S ([2]; Table S1(A)) was “I”. The R/I/S (S. Typhimurium 0911R) was “R”.
CN[C@H](CC(C)C)C(=O)N[C@H]1C(=O)N[C@@H](CC(N)=O)C(=O)N[C@H]2C(=O)N[C@H]3C(=O)N[C@H](C(=O)N[C@H](C(=O)O)c4cc(O)cc(O)c4-c4cc3ccc4O)[C@H](O)c3ccc(c(Cl)c3)Oc3cc2cc(c3O[C@@H]2O[C@H](CO)[C@@H](O)[C@H](O)[C@H]2O[C@H]2C[C@](C)(N)[C@H](O)[C@H](C)O2)Oc2ccc(cc2Cl)[C@H]1O [Vancomycin] showed an MIC ([2]; Table S2, CAMH medium) of 2050 µg/mL (≈ 1410 µM), an MIC ([2]; Table S2, LB medium) of 512 µg/mL (≈ 353 µM) and an MIC ([2]; Table S2, LPM medium) of 128 µg/mL (≈ 88.3 µM).
For C=CC1=C(C(=O)O)N2C(=O)[C@@H](NC(=O)/C(=N\OCC(=O)O)c3csc(N)n3)[C@H]2SC1 [cefixime], the “survival of intracellular Salmonella in macrophages, antibiotic alone” value ([1]; HCA) was “inhibited the survival of intracellular Salmonella in macrophages in a dose-dependent manner”.
